Reference: patent US6525001B1, “Substituted pyrimidine and pyridine herbicides” (Mid-American Commercialization Corporation, priority 1997, dated 2003)

Key:
Type in all cases: in vivo
[1] = test system: cocklebur (Xanthium strumarium); test: Test B pre-/postemergence; parameters: key: 0 is no effect; 10 is complete control
Excerpt: (§1) Seeds of bedstraw (Galium aparine), blackgrass (Alopecurus myosuroides), broadleaf signalgrass (Brachiaria decumbens), cocklebur (Xanthium strumarium), corn (Zea mays), crabgrass (Digitaria sanguinalis), giant foxtail (Setaria faberii), lambsquarters (Chenopodium album), momingglory (Ipomoea hederacea), pigweed (Amaranthus retroflexus), rape (Brassica napus), soybean (Glycine max), sugar beet (Beta vulgaris), velvetleaf (Abutilon theophrasti), wheat (Triticum aestivum), wild oat (Avena fatua) and purple nutsedge (Cyperus rotundus) tubers were planted and treated preemergence with test chemicals formulated in a non-phytotoxic solvent mixture which included a surfactant.
(§2) At the same time, these crop and weed species were also treated with postemergence applications of test chemicals formulated in the same manner. Plants ranged in height from 2 to 18 cm (1- to 4-leaf stage) for postemergence treatments. Plant species in the flood test consisted of rice (Oryza sativa), smallflower flatsedge (Cyperus difformis), duck salad (Heteranthera limosa) and bamyardgrass (Echinochloa crus-galli) grown to the 2-leaf stage for testing. Treated plants and controls were maintained in a greenhouse for twelve to sixteen days, after which all species were compared to controls and visually evaluated. Plant response ratings, summarized in Table B, are based on a scale of 0 to 10 where 0 is no effect and 10 is complete control. A dash (−) response means no test result.

[2] = test system: sugar beet (Beta vulgaris); test: Test B pre-/postemergence; parameters: key: 0 is no effect; 10 is complete control
Excerpt: as §1, §2

[3] = test system: blackgrass (Alopecurus myosuroides); test: Test B pre-/postemergence; parameters: key: 0 is no effect; 10 is complete control
Excerpt: as §1, §2

[4] = test system: wheat (Triticum aestivum); test: Test B pre-/postemergence; parameters: key: 0 is no effect; 10 is complete control
Excerpt: as §1, §2

[5] = test system: pigweed (Amaranthus retroflexus); test: Test B pre-/postemergence; parameters: key: 0 is no effect; 10 is complete control
Excerpt: as §1, §2

[6] = test system: purple nutsedge (Cyperus rotundus); test: Test B pre-/postemergence; parameters: key: 0 is no effect; 10 is complete control
Excerpt: as §1, §2

[7] = test system: crabgrass (Digitaria sanguinalis); test: Test B pre-/postemergence; parameters: key: 0 is no effect; 10 is complete control
Excerpt: as §1, §2

[8] = test system: velvetleaf (Abutilon theophrasti); test: Test B pre-/postemergence; parameters: key: 0 is no effect; 10 is complete control
Excerpt: as §1, §2

[9] = test system: corn (Zea mays); test: Test B pre-/postemergence; parameters: key: 0 is no effect; 10 is complete control
Excerpt: as §1, §2

[10] = test system: bedstraw (Galium aparine); test: Test B pre-/postemergence; parameters: key: 0 is no effect; 10 is complete control
Excerpt: as §1, §2

[11] = test system: rape (Brassica napus); test: Test B pre-/postemergence; parameters: key: 0 is no effect; 10 is complete control
Excerpt: as §1, §2

[12] = test system: wild oat (Avena fatua); test: Test B pre-/postemergence; parameters: key: 0 is no effect; 10 is complete control
Excerpt: as §1, §2

[13] = test system: soybean (Glycine max); test: Test B pre-/postemergence; parameters: key: 0 is no effect; 10 is complete control
Excerpt: as §1, §2

[14] = test system: broadleaf signalgrass (Brachiaria decumbens); test: Test B pre-/postemergence; parameters: key: 0 is no effect; 10 is complete control
Excerpt: as §1, §2

[15] = test system: giant foxtail (Setaria faberii); test: Test B pre-/postemergence; parameters: key: 0 is no effect; 10 is complete control
Excerpt: as §1, §2

[16] = test system: momingglory (Ipomoea hederacea); test: Test B pre-/postemergence; parameters: key: 0 is no effect; 10 is complete control
Excerpt: as §1, §2

[17] = test system: duck salad (Heteranthera limosa); test: Test B flood test
Summary of the method: (§3)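 Each value is a visual injury score relative to controls, with 10 meaning complete control and 0 no effect. Evaluation took place twelve to sixteen days after the 2-leaf-stage plants were treated and kept in the greenhouse.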

[18] = test system: smallflower flatsedge (Cyperus difformis); test: Test B flood test
Summary of the method: as §3

[19] = test system: bamyardgrass (Echinochloa crus-galli); test: Test B flood test
Summary of the method: as §3

[20] = test system: rice (Oryza sativa); test: Test B flood test
Summary of the method: as §3

[21] = Rate 62 g/ha, Postemergence (flood test)
[22] = Rate 125 g/ha, Postemergence, flood test
[23] = Rate 250 g/ha, Postemergence (flood test species)

`Cc1cnc(-c2ccc(F)c(Cl)c2)nc1Cc1cccc(C(F)(F)F)c1` [Compound 25] was tested, and the “Plant response rating, Cocklebur” value ([1]; Rate 62 g/ha, Postemergence) was 9, the “Cocklebur plant response rating” value ([1]; Rate 62 g/ha, Preemergence) was 0 and the “Plant response rating, Cocklebur” value ([1]; Rate 125 g/ha, Postemergence) was 9. The “Cocklebur plant response rating” value ([1]; Rate 125 g/ha, Preemergence) was 0, the “Plant response rating, Cocklebur” value ([1]; Rate 250 g/ha, Postemergence) was 9 and the “Plant response rating, Cocklebur” value ([1]; Rate 250 g/ha, Preemergence) was 8. The “Plant response rating, Sugarbeets” value ([2]; Rate 62 g/ha, Postemergence) was 10, the “Sugarbeets plant response rating” value ([2]; Rate 62 g/ha, Preemergence) was 6 and the “Plant response rating, Sugarbeets” value ([2]; Rate 125 g/ha, Postemergence) was 10. The “Sugarbeets plant response rating” value ([2]; Rate 125 g/ha, Preemergence) was 8, the “Plant response rating, Sugarbeets” value ([2]; Rate 250 g/ha, Postemergence) was 10 and the “Plant response rating, Sugarbeets” value ([2]; Rate 250 g/ha, Preemergence) was 9. The “Plant response rating, Blackgrass” value ([3]; Rate 62 g/ha, Postemergence) was 3, the “Blackgrass plant response rating” value ([3]; Rate 62 g/ha, Preemergence) was 1 and the “Plant response rating, Blackgrass” value ([3]; Rate 125 g/ha, Postemergence) was 4. For the same molecule, the “Blackgrass plant response rating” value ([3]; Rate 125 g/ha, Preemergence) was 5, the “Plant response rating, Blackgrass” value ([3]; Rate 250 g/ha, Postemergence) was 8 and the “Plant response rating, Blackgrass” value ([3]; Rate 250 g/ha, Preemergence) was 8. For the same molecule, the “Plant response rating, Wheat” value ([4]; Rate 62 g/ha, Postemergence) was 2, the “Wheat plant response rating” value ([4]; Rate 62 g/ha, Preemergence) was 0 and the “Plant response rating, Wheat” value ([4]; Rate 125 g/ha, Postemergence) was 4. For the same molecule, the “Wheat plant response rating” value ([4]; Rate 125 g/ha, Preemergence) was 1, the “Plant response rating, Wheat” value ([4]; Rate 250 g/ha, Postemergence) was 4 and the “Plant response rating, Wheat” value ([4]; Rate 250 g/ha, Preemergence) was 2. For the same molecule, the “Plant response rating, Redroot pigweed” value ([5]; Rate 62 g/ha, Postemergence) was 10, the “Redroot pigweed plant response rating” value ([5]; Rate 62 g/ha, Preemergence) was 1 and the “Plant response rating, Redroot pigweed” value ([5]; Rate 125 g/ha, Postemergence) was 10. For the same molecule, the “Redroot pigweed plant response rating” value ([5]; Rate 125 g/ha, Preemergence) was 3, the “Plant response rating, Redroot pigweed” value ([5]; Rate 250 g/ha, Postemergence) was 10 and the “Plant response rating, Redroot pigweed” value ([5]; Rate 250 g/ha, Preemergence) was 9. The “Plant response rating, Nutsedge” value ([6]; Rate 62 g/ha, Postemergence) was 1, the “Nutsedge plant response rating” value ([6]; Rate 62 g/ha, Preemergence) was 0 and the “Plant response rating, Nutsedge” value ([6]; Rate 125 g/ha, Postemergence) was 1. For the same molecule, the “Nutsedge plant response rating” value ([6]; Rate 125 g/ha, Preemergence) was 0, the “Plant response rating, Nutsedge” value ([6]; Rate 250 g/ha, Postemergence) was 2 and the “Plant response rating, Nutsedge” value ([6]; Rate 250 g/ha, Preemergence) was 0. The “Plant response rating, Crabgrass” value ([7]; Rate 62 g/ha, Postemergence) was 7, the “Crabgrass plant response rating” value ([7]; Rate 62 g/ha, Preemergence) was 0 and the “Plant response rating, Crabgrass” value ([7]; Rate 125 g/ha, Postemergence) was 7. The “Crabgrass plant response rating” value ([7]; Rate 125 g/ha, Preemergence) was 0, the “Plant response rating, Crabgrass” value ([7]; Rate 250 g/ha, Postemergence) was 10 and the “Plant response rating, Crabgrass” value ([7]; Rate 250 g/ha, Preemergence) was 1. For the same molecule, the “Plant response rating, Velvetleaf” value ([8]; Rate 62 g/ha, Postemergence) was 8, the “Velvetleaf plant response rating” value ([8]; Rate 62 g/ha, Preemergence) was 0 and the “Plant response rating, Velvetleaf” value ([8]; Rate 125 g/ha, Postemergence) was 9. For the same molecule, the “Velvetleaf plant response rating” value ([8]; Rate 125 g/ha, Preemergence) was 0, the “Plant response rating, Velvetleaf” value ([8]; Rate 250 g/ha, Postemergence) was 9 and the “Plant response rating, Velvetleaf” value ([8]; Rate 250 g/ha, Preemergence) was 2. The “Plant response rating, Corn” value ([9]; Rate 62 g/ha, Postemergence) was 1, the “Corn plant response rating” value ([9]; Rate 62 g/ha, Preemergence) was 0 and the “Plant response rating, Corn” value ([9]; Rate 125 g/ha, Postemergence) was 2. For the same molecule, the “Corn plant response rating” value ([9]; Rate 125 g/ha, Preemergence) was 0, the “Plant response rating, Corn” value ([9]; Rate 250 g/ha, Postemergence) was 3 and the “Plant response rating, Corn” value ([9]; Rate 250 g/ha, Preemergence) was 0. The “Plant response rating, Bedstraw” value ([10]; Rate 62 g/ha, Postemergence) was 9, the “Bedstraw plant response rating” value ([10]; Rate 62 g/ha, Preemergence) was 1 and the “Plant response rating, Bedstraw” value ([10]; Rate 125 g/ha, Postemergence) was 10. For the same molecule, the “Bedstraw plant response rating” value ([10]; Rate 125 g/ha, Preemergence) was 1, the “Plant response rating, Bedstraw” value ([10]; Rate 250 g/ha, Postemergence) was 10 and the “Plant response rating, Bedstraw” value ([10]; Rate 250 g/ha, Preemergence) was 2. For the same molecule, the “Plant response rating, Rape” value ([11]; Rate 62 g/ha, Postemergence) was 10, the “Rape plant response rating” value ([11]; Rate 62 g/ha, Preemergence) was 2 and the “Plant response rating, Rape” value ([11]; Rate 125 g/ha, Postemergence) was 10. The “Rape plant response rating” value ([11]; Rate 125 g/ha, Preemergence) was 7, the “Plant response rating, Rape” value ([11]; Rate 250 g/ha, Postemergence) was 10 and the “Plant response rating, Rape” value ([11]; Rate 250 g/ha, Preemergence) was 10. For the same molecule, the “Plant response rating, Wild oats” value ([12]; Rate 62 g/ha, Postemergence) was 3, the “Wild oats plant response rating” value ([12]; Rate 62 g/ha, Preemergence) was 1 and the “Plant response rating, Wild oats” value ([12]; Rate 125 g/ha, Postemergence) was 3. For the same molecule, the “Wild oats plant response rating” value ([12]; Rate 125 g/ha, Preemergence) was 3, the “Plant response rating, Wild oats” value ([12]; Rate 250 g/ha, Postemergence) was 4 and the “Plant response rating, Wild oats” value ([12]; Rate 250 g/ha, Preemergence) was 5. The “Plant response rating, Soybean” value ([13]; Rate 62 g/ha, Postemergence) was 4, the “Soybean plant response rating” value ([13]; Rate 62 g/ha, Preemergence) was 0 and the “Plant response rating, Soybean” value ([13]; Rate 125 g/ha, Postemergence) was 7. The “Soybean plant response rating” value ([13]; Rate 125 g/ha, Preemergence) was 0, the “Plant response rating, Soybean” value ([13]; Rate 250 g/ha, Postemergence) was 7 and the “Plant response rating, Soybean” value ([13]; Rate 250 g/ha, Preemergence) was 1. For the same molecule, the “Plant response rating, B. signalgrass” value ([14]; Rate 62 g/ha, Postemergence) was 2, the “B. signalgrass plant response rating” value ([14]; Rate 62 g/ha, Preemergence) was 1 and the “Plant response rating, B. signalgrass” value ([14]; Rate 125 g/ha, Postemergence) was 3. For the same molecule, the “B. signalgrass plant response rating” value ([14]; Rate 125 g/ha, Preemergence) was 2, the “Plant response rating, B. signalgrass” value ([14]; Rate 250 g/ha, Postemergence) was 3 and the “Plant response rating, B. signalgrass” value ([14]; Rate 250 g/ha, Preemergence) was 6. The “Plant response rating, Giant foxtail” value ([15]; Rate 62 g/ha, Postemergence) was 3, the “Giant foxtail plant response rating” value ([15]; Rate 62 g/ha, Preemergence) was 1 and the “Plant response rating, Giant foxtail” value ([15]; Rate 125 g/ha, Postemergence) was 6. For the same molecule, the “Giant foxtail plant response rating” value ([15]; Rate 125 g/ha, Preemergence) was 4, the “Plant response rating, Giant foxtail” value ([15]; Rate 250 g/ha, Postemergence) was 8 and the “Plant response rating, Giant foxtail” value ([15]; Rate 250 g/ha, Preemergence) was 9. The “Plant response rating, Morningglory” value ([16]; Rate 62 g/ha, Postemergence) was 10, the “Morningglory plant response rating” value ([16]; Rate 62 g/ha, Preemergence) was 3 and the “Plant response rating, Morningglory” value ([16]; Rate 125 g/ha, Postemergence) was 10. The “Morningglory plant response rating” value ([16]; Rate 125 g/ha, Preemergence) was 3, the “Plant response rating, Morningglory” value ([16]; Rate 250 g/ha, Postemergence) was 10 and the “Plant response rating, Morningglory” value ([16]; Rate 250 g/ha, Preemergence) was 10. For the same molecule, the “Plant response rating, Ducksalad” value [17, 21] was 3, the “Plant response rating, Ducksalad” value [17, 22] was 4 and the “Plant response rating, Ducksalad” value [17, 23] was 6. The “Plant response rating, S. Flatsedge” value [18, 21] was 3, the “Plant response rating, S. Flatsedge” value [18, 22] was 5 and the “Plant response rating, S. Flatsedge” value [18, 23] was 7. For the same molecule, the “Plant response rating, Barnyardgrass” value [19, 21] was 3, the “Plant response rating, Barnyardgrass” value [19, 22] was 4 and the “Plant response rating, Barnyardgrass” value [19, 23] was 5. For the same molecule, the “Plant response rating, Rice” value [20, 21] was 3, the “Plant response rating, Rice” value [20, 22] was 4 and the “Plant response rating, Rice” value [20, 23] was 5.
